The test system of assay [1] is isolated rabbit urinary bladder. As to the kind of experiment: Relaxation effect on potassium-induced contraction of isolated rabbit urinary bladder. Particulars: Oryctolagus cuniculus; isolated rabbit urinary bladder strips pre-contracted with high-K+ (30 mM); relaxation relative to 10^-4 M papaverine as 100%; rank A, B or C; read-out: IC50 value (50% relaxation concentration). The class given is cell-based. How it is done: Relaxation Effect on Potassium-Induced Contraction of Isolated Rabbit Urinary Bladder
Urinary bladder was isolated from Male NZW rabbits (body weight: 2.0-3.5 kg) and immersed in ice-cold Krebs-bicarbonate solution (in mM: 118 NaCl, 4.7 KCl, 2.55 CaCl2, 1.18 MgSO4, 1.18 KH2PO4, 24.88 NaHCO3 and 11.1 glucose). The urinary bladder was cut into longitudinal strips (5 mm length, 3-4 mm width) after mucosal layer was removed.
Preparations were mounted in organ baths containing 10 ml of Krebs solution maintained at 37° C. and gassed with 95% O2/5% CO2. Accordingly, preparations were stretched with an initial tension of 2.0±1.0 g, and changes in isometric tension were measured by force-displacement transducer. The preparations were pre-contracted by changing organ-bath solution into high-K^+ (30 mM) Krebs solution (in mM: 118 NaCl, […], 2.55 CaCl2, 1.18 MgSO4, 1.18 KH2PO4, 24.88 NaHCO3 and 11.1 glucose).
After stable tension was obtained, compounds were added into organ baths cumulatively (10^−8 M-10^−4 M). The effects of compounds were expressed as a percentage of the maximum relaxation produced by 1O^−4 M papaverine as 100%. 50% relaxation concentration (IC50) was calculated and IC50 value range (μM) of compounds of the present invention was shown in the following Table 68 with a rank of A, B or C. These ranges are as mentioned below. 3 μM≧C>1 μM≧B>0.5 μM≧A

Assay [2] has as its system anesthetized rats. As to the kind of experiment: Inhibitory effect on the rhythmic bladder contractions induced by substance P in anesthetized rats. Format: in vivo, rat. Particulars: time during which frequency of rhythmic bladder contraction was completely inhibited; 0.25 mg/kg of compound, intravenous; substance P-infused anesthetized rats. The protocol: Inhibitory Effect on the Rhythmic Bladder Contractions Induced by Substance P in Anesthetized Rats
For the experiments, Sprague-Dawley female rats (9 to 12 weeks old) weighing between 200 to 300 g were used. After urethane anesthetization (subcutaneously administered with a dose of 1.2 g/kg), cannulae were placed in both right and left femoral veins. One intravenous catheter was used for administration of compounds, and the other was for the substance P (0.33 μg/kg/min) infusion. We also cannulated into ureter to pass urine. Polyethylene catheters were inserted into carotid artery for continuous monitoring of arterial blood pressure and heart rate. For continuous infusion, transurethral bladder catheter was inserted into the bladder through the urethra and tied in place by a ligature around the urethral orifice. One end of the catheter was attached to a pressure transducer in order to measure intravesical pressure. The other end of the catheter was used for infusion of saline into the bladder. After stabilization of blood pressure and heart rate and after the bladder was emptied, cystometry was performed by filling the bladder slowly with about 0.6 ml of saline. After about 10 minutes, intravenous infusion of substance P (0.33 μg/kg/min) was started for stabilization of the micturition reflex. Compounds were administered after stable rhythmic bladder contraction was obtained over 15 minutes. All compounds were dissolved or suspended in saline containing 0.5% Tween 80 for intravenous administration (0.1 ml/kg).
Also, pre-administration of iberiotoxin, a selective large conductance calcium-activated K channel blocker (0.15 mg/kg, intravenous administration) reduced inhibitory effect of the compounds of the present invention on the rhythmic bladder contraction.

pIC50: −log10 of the molar value.

Take `Cc1ccc(-c2cc(C(F)(F)F)nn2-c2ccccc2)cc1S(=O)(=O)NCCO` [Example 46]: the pIC50 in assay [1] is 5.52 to 6.00.
Still for that read-out and setting: the same measure for `Cc1onc(-c2ccccc2)c1-c1ccc(C(N)=O)c(O)c1` [Example 155, 2-hydroxy-4-(5-methyl-3-phenylisoxazol-4-yl)benzamide]: 5.52 to 6.00.
On the same count and under the same terms, the same measure for `Cc1onc(-c2ccccc2)c1-c1ccc(OCCO)cc1` [Example 152, 2-[4-(5-methyl-3-phenylisoxazol-4-yl)phenoxy]ethanol]: 6.00 to 6.30; for `COCCNS(=O)(=O)c1ccc(-n2nc(C(F)(F)F)cc2-c2ccc(C)cc2)cc1` [Example 30]: 5.52 to 6.00.
Take `Cc1onc(-c2ccccc2)c1-c1ccc(S(=O)(=O)NO)cc1` [Example 171]: in assay [2], the “100% inhibiting time” value worked out at 12.8 min.
With `Cc1onc(-c2ccccc2)c1-c1ccc(C(=O)N[C@@H](C)CO)cc1` [Example 135, N-[(1S)-2-hydroxy-1-methylethyl]-4-(5-methyl-3-phenylisoxazol-4-yl)benzamide], the “100% inhibiting time” value in assay [2] was determined as 17.8 min.
As for `Cc1onc(-c2cccnc2)c1-c1ccc(C(=O)NCCO)cc1` [Example 207], the pIC50 in assay [1] was 6.00 to 6.30. In addition, the “100% inhibiting time” value in assay [2] was determined as 13.9 min.
As for `Cc1ccc(-c2cc(C(F)(F)F)nn2-c2ccc(C(=O)NCCO)cc2)cc1` [Example 51], the pIC50 in assay [1] is 5.52 to 6.00.
Same read-out and setting: the value for `Cc1cccc(-n2nc(C(F)(F)F)cc2-c2ccc(C)c(S(N)(=O)=O)c2)c1` [Example 45] was 5.52 to 6.00.
Regarding `COC(=O)NCCNS(=O)(=O)c1ccc(-n2nc(C(F)(F)F)cc2-c2ccc(C)cc2)cc1` [Example 59, methyl {2-[({4-[5-(4-methylphenyl)-3-(trifluoromethyl)-1H-pyrazol-1-yl]phenyl}sulfonyl)amino]-ethyl}carbamate], the pIC50 in assay [1] was 5.52 to 6.00. For the same compound, the “100% inhibiting time” value in assay [2] is 5.7 min.
Turning to `Cc1onc(-c2ccc(N(C)C)cc2)c1-c1ccc(S(N)(=O)=O)cc1` [Example 115], the pIC50 in assay [1] is greater than 6.30.
